# Reference: patent publication EP4007494B1, “METHOD OF IMPROVING COLD STRESS TOLERANCE AND CROP SAFETY” (Bayer CropScience LLC, priority 2019, dated 2021)
# Like-named read-outs stand apart in the source and are kept apart here.
# Test system: canola
# Settings: for Average Relative Yield: relative to PROSPER EVERGOL
smiles,measurement,setting,value
"O=C1C=C(N(Cc2ccc(Cl)nc2)CC(F)F)CO1 [Flupyradifurone, flupyradifurone]",Average Relative Yield,"Flupyradifurone 5 g per kg seed, alone or + QST713 1 × 10^6 CFU per seed",102.0%
same,Average Relative Yield,Flupyradifurone 10 g per kg seed,100.5%
same,Average Relative Stand Density,in vivo,83.2%
same,Average Vigor Rating,in vivo,4.2
same,Relative Delay in Emergence,in vivo,3.5 days
same,average relative stand density,in vivo,decreased
same,delay in emergence,in vivo,significant delay in emergence
